Publication PMC12036814 (Angewandte Chemie (International Ed. in English), 2025)

Columns and labels:
HEK‐293 cells = assay: Whole proteome analysis (LC-MS/MS, LFQ) of treated HEK-293 cells; settings: 1 µM, 24 h, versus vehicle
SCARB1 = target: T1, SCARB1 (Homo sapiens, UniProt Q8WTV0); assay: Microscale thermophoresis (MST) binding
T1 construct: purchased Hölzel Biotech SC1-H82E5
T1 sequence (Q8WTV0 1-552): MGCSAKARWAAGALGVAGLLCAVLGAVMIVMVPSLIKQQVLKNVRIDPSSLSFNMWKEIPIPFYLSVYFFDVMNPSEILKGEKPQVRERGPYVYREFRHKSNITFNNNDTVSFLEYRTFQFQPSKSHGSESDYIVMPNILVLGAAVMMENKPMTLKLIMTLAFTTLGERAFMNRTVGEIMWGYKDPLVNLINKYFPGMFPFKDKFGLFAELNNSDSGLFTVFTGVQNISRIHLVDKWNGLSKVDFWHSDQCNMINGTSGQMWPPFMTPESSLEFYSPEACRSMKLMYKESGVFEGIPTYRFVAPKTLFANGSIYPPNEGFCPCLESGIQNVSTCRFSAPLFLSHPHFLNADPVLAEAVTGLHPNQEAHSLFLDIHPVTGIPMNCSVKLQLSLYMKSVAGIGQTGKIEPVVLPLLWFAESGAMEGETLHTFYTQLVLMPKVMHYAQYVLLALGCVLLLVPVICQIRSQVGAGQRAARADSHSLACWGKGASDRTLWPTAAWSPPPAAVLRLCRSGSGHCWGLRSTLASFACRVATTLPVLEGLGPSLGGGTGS
Protocol: reaction was terminated by addition of 800 μL EtOAc+0.5% AcOH, 300 μL H2O and 100 μL internal standard (13,14-dihydro-15-ketoprostaglandin -d4, 300 pmol/sample, Cayman Chemical, Ann Arbor, USA, Cat# 10010606). Of the organic phase 600 μL was transferred into a fresh Eppendorf tube and the solvent removed in a SpeedVac. The residue was dissolved in 100 μL acetonitrile/ H2O (1:1) and measured with LC-MS/MS. Gradient: Solvent A = H2O + 0.1% formic acid, solvent B = acetonitrile + 0.5% formic acid, flow rate = 0 .4 mL/min, run length 6 min, gradient = 0 min 30% B, 1 min 30% B, 2 min 31.5% B, 2.1 min 95% B, 4 min 95% B, 4.1 min 30% B, 6 min 30% B. MS settings: Capillary = 3.0 kV, sampling cone = […], extraction cone […], source temperature = 100 °C, desolvat ion temperature = 350 °C, cone gas flow = 50.0 L/h, desolvation gas flow = 650.0 L/h, scan time = 0.250 s, inter-scan time = 0.020 s, mass range = 100 -800 Da. Masses of 15 -ketoprostaglandin (349.2 Da, collision energy = 21.0 eV), 13,14 -dihydro-15-ketoprostaglandin (351.2 Da, collision energy = 18.0 eV) and 13,14-dihydro-15-ketoprostaglandin (355.2 Da, collision energy = 10.0 eV) were set for MRM. The areas under the curve (AUC) were used to quantify 15 -keto-PGE2 and 13,14 -dihydro-15-keto-PGE2 levels by determining peak areas in relation to internal standard […]. The experiment was […]
Microscale thermophoresis (MST) was performed as follows: Monolith His -Tag Labeling Kit RED -tris-NTA 2nd Generation (NanoTemper Technologies, Munich, Germany, Cat# MO -L018) was used for KD determination as recommended by the purchaser. Briefly, SCARB1 ( Hölzel Biotech, Cologne, Germany, Cat# SC1-H82E5) concentration (50 nM) was adjusted in assay buffer and labelled by the RED -tris-NTA dye (100 nM). This mixture was added to compound dilution series (c = 1 mM to 30 nM) and measured using Monolith NT.115 (NanoTemper Technologies, Munich, Germany ). The experiment was performed once and analysed with the MO Affinity Analysis software (NanoTemper).
NUDT1 target validation efforts:
Recombinant NUDT1 expression & purification […]

AIFM1 = target: T2, AIFM1 (Homo sapiens, UniProt O95831); assay: Gel-based labelling of recombinant AIFM1 spiked into HEK-293 lysate; type: binding; settings: 5 μM probe, AIFM1 spiked in HEK-293 lysate
T2 construct: made in house; host or cells: E. coli Rosetta2
T2 sequence (O95831 102-613): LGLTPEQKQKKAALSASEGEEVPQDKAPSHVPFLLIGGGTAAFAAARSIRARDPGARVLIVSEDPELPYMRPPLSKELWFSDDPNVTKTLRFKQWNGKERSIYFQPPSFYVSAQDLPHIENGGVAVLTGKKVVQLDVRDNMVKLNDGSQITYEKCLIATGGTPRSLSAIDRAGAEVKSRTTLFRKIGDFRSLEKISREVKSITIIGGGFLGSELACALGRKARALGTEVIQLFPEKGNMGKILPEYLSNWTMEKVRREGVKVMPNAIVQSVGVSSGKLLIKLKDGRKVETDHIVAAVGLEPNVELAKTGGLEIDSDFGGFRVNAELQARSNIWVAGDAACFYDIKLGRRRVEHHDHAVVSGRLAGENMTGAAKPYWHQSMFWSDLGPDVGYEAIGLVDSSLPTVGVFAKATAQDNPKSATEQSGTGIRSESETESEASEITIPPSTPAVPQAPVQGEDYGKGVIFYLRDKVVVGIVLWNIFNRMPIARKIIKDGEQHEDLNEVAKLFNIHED
Protocol: AIFM1 expression & purification
Recombinant AIFM1 was expressed in a Rosetta2 E. coli strain. Bacterial growth was conducted in LB media supplemented with riboflavin and FAD shaking at 37°C and 180 rpm. Expression was induced with 1.0 mM IPTG and incubated for further 16 h before harvesting. Cells were harvested on ice in PBS and cell pellets stored at -20°C. Cells were lysed by French press and the 6xHis-tagged constructs were purified by Immobilized Metal Affinity Chromatography using Ni Sepharose (6 Fast Flow, GE). The centrifugation-cleared bacterial lysate was bound to beads in binding buffer (200 mM NaCl, 20 mM Tris/Cl pH = 7.4). […]
For gel-based fluorescence labelling of recombinant AIFM1, 1.7 µM recombinant protein was spiked - in to PBS or PBS -diluted HEK293 cell lysate ( 100 µg per reaction sample). […]
Click Master-mix (8 µL, 100 µM TAMRA-azide, Baseclick, Neuried, Germany, Cat# BCFA-008-10, 500 µM BTTAA ligand, Jena Bioscience, Jena, Germany, CLK -067, 1 mM CuSO4) was added and the CuAAC reaction started by addition of 2 µL of aq. sodium ascorbate (c end= 2 mM). […] Fluorescence scanning was performed using a Las-3000 fluorescence darkbox (Fujifilm, Minato, Japan) with a Fujinon VRF 43LMD Lens, 605DF40 filter and 520 nm EPI excitation wavelength and loading controls were developed with Coomassie stain afterwards. […]

SMILES | pattern of downregulated proteins and affected pathways (HEK‐293 cells) | Kd (SCARB1; acquisition software MO.Control, read-out: binding affinity (Kd)) [µM] | binding to SCARB1 (SCARB1; aggregation/precipitation at high compound concentrations) | gel-based labelling of recombinant AIFM1 by probe (AIFM1)
Cc1ccccc1CN1C(=O)C2=C(CCN(Cc3ccccc3)C2)N2CCN=C12 [ONC201] | strikingly similar to Ciprofloxacin treated cells |  |  | 
C#CCCC1(CCN2CCN(c3cc4c(cc3F)c(=O)c(C(=O)O)cn4C3CC3)CC2)N=N1 [Cipro P1] |  | 394 | weak binding | strong fluorescent band corresponding to the molecular weight of AIFM1
